Experiments:
[1] = target: T1, Serine/threonine-protein kinase TNNI3K (Homo sapiens, UniProt Q59H18); experiment: Inhibition of TNNI3K (unknown origin)
T1 sequence (Q59H18 whole entry): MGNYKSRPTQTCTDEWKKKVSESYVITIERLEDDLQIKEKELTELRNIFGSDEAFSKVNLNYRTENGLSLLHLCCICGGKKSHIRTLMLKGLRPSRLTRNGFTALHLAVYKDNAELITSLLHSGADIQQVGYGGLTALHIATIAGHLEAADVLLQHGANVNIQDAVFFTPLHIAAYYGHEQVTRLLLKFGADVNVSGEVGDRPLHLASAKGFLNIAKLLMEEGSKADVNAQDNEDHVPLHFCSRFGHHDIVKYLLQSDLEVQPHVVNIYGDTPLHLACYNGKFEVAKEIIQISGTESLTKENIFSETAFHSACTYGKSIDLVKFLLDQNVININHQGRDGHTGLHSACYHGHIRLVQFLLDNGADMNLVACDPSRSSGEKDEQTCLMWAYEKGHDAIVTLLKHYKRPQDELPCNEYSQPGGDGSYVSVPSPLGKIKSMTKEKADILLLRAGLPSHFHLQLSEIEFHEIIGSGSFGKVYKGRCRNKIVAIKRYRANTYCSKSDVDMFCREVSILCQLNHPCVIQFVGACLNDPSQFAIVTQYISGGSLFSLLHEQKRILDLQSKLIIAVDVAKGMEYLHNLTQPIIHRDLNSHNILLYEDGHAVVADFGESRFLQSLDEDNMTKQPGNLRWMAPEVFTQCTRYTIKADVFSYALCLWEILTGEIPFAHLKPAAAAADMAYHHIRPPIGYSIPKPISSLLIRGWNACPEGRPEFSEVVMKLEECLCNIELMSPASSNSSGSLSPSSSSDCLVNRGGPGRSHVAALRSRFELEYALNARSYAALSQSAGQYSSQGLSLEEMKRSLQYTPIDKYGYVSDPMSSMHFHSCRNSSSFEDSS

[2] = Dose normalized AUC in po dosed rat administered as cassette dose; assay type: ADME, organism-based; conditions: in vivo
[3] = target: T1, Serine/threonine-protein kinase TNNI3K; experiment: Inhibition of human myc-TNNI3K expressed in HEK-MSR2 cells assessed as reduction in TNNI3K autophosphorylation preincubated for 30 mins followed by pervanadate addition and measured after 20 mins by DELFIA; assay type: cell-based
[4] = target: Vascular endothelial growth factor receptor 2 (Homo sapiens, UniProt P35968); experiment: Inhibition of GST-6His tagged VEGFR2 (unknown origin) using biotin-aminohexyl-EEEEYFELVAKKKK-NH2 peptide substrate incubated for 90 mins by HTRF assay
[5] = target: Mitogen-activated protein kinase 14 (Homo sapiens, UniProt Q16539); experiment: Inhibition of p38alpha (unknown origin)
[6] = target: Serine/threonine-protein kinase B-raf (Homo sapiens, UniProt P15056); experiment: Inhibition of B-Raf (unknown origin)
Homo sapiens [7] = organism: Homo sapiens; experiment: Selectivity index, ratio of IC50 for inhibition of VEGFR2 (unknown origin) to IC50 for inhibition of TNNI3K (unknown origin)
Homo sapiens [8] = organism: Homo sapiens; experiment: Selectivity index, ratio of IC50 for inhibition of p38alpha (unknown origin) to IC50 for inhibition of TNNI3K (unknown origin)
[9] = Permeability of compound incubated for 2 hrs by liquid chromatography analysis; assay type: ADME; conditions: read-out: permeability
[10] = Half life in po dosed rat administered as cassette dose; assay type: ADME, organism-based; conditions: in vivo

Vascular endothelial growth factor receptor 2, sequence (P35968 whole entry): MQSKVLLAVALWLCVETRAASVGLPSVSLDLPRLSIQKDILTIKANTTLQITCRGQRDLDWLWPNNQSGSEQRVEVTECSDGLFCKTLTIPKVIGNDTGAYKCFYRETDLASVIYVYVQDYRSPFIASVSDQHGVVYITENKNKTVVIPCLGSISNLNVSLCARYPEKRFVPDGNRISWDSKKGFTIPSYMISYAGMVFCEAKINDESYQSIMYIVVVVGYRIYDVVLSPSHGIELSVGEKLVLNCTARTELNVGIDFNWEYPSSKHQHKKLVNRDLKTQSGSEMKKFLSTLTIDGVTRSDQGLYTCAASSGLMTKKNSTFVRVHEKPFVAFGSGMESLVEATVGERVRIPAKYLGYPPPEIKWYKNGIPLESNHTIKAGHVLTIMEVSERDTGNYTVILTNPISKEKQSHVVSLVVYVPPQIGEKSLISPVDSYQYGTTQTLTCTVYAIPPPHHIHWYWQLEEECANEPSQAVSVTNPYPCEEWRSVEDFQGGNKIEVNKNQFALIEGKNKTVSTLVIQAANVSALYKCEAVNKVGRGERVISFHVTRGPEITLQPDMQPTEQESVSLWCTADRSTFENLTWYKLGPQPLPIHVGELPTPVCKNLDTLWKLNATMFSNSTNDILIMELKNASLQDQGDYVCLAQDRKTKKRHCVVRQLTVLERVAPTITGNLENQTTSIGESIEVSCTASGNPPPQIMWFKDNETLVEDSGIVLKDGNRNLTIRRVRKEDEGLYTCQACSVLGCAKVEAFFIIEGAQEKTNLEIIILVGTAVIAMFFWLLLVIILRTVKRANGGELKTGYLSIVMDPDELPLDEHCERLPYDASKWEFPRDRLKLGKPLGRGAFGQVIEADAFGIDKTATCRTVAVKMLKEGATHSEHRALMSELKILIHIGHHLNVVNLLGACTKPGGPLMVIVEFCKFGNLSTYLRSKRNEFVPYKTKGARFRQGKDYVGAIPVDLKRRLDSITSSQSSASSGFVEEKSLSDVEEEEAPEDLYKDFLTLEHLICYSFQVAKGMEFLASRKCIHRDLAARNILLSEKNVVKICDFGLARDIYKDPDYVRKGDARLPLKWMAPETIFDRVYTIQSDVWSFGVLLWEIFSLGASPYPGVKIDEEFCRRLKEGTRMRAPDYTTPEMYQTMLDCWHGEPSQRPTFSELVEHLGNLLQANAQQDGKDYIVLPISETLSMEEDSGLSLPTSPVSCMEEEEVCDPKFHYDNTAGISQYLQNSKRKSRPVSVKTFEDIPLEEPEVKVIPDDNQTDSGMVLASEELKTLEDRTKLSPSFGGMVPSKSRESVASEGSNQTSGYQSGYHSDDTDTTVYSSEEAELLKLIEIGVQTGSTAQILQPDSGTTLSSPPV
Serine/threonine-protein kinase B-raf, sequence (P15056 whole entry): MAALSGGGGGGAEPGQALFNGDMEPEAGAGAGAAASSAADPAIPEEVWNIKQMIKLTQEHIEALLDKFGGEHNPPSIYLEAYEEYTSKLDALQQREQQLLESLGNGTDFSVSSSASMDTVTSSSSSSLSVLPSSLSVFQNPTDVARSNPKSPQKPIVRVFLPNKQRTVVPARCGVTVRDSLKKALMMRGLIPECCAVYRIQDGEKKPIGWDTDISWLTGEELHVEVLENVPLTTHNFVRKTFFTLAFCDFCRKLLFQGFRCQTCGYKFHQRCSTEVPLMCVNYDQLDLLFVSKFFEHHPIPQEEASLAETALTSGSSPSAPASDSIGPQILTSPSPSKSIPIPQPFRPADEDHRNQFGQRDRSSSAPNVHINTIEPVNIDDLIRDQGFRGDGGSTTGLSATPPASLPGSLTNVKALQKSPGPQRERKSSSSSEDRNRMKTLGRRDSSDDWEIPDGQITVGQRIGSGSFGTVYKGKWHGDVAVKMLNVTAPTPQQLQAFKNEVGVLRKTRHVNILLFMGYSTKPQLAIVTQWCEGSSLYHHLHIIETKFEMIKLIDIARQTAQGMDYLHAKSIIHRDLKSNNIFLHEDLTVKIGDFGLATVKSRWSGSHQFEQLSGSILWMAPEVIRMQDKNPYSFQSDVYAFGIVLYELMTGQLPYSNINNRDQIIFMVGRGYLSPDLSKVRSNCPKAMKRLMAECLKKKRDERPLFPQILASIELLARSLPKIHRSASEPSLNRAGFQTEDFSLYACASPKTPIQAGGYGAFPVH
Mitogen-activated protein kinase 14, sequence (Q16539 whole entry): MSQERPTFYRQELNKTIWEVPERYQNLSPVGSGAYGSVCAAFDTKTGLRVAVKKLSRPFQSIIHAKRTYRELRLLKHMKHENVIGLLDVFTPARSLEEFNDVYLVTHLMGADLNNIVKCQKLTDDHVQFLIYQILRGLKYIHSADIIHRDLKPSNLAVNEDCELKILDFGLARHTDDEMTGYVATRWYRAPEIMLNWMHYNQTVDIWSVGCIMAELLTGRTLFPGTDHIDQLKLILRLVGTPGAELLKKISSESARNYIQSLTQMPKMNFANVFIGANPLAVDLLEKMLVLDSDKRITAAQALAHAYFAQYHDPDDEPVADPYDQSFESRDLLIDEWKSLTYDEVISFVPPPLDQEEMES

Structure (SMILES) | IC50 [1] | AUC/dose [2] | IC50 [3] | IC50 [4] | IC50 [5] | IC50 [6] | Ratio IC50 (Homo sapiens [7]) | Ratio IC50 (Homo sapiens [8]) | Papp at 2 h [9] | half-life [10]
CCS(=O)(=O)c1ccc(S(=O)(=O)NC)cc1Nc1cc(Nc2ccc(Cl)cn2)ncn1 | ≤ 10 nM | 0.56 kg·h/L |  |  |  |  |  |  |  | 
CNS(=O)(=O)c1ccc(N(C)C)c(Nc2ncnc3cc(OC)c(OC)cc23)c1 |  | 0.18 kg·h/L |  |  |  | 1000 nM |  |  |  | 
CNS(=O)(=O)c1ccc(N(C)C)c(Nc2ncnc3[nH]ccc23)c1 |  | 0.59 kg·h/L |  |  |  | 6 nM |  |  |  | 
CNC(=O)c1cc(Oc2ccc(NC(=O)Nc3ccc(Cl)c(C(F)(F)F)c3)cc2)ccn1 [SORAFENIB] |  | 5.8 kg·h/L |  |  |  |  |  |  | 11 ×10⁻⁶ cm/s | 6.8 h
CNc1cc(Oc2ccc(NC(=O)Nc3cccc(C(C)F)c3)cc2)ncn1 (stereo not drawn) | 79 nM |  |  | 79 nM | 5000 nM | 1000 nM | 1 | 63 |  | 
CNc1cc(Oc2cc(C)c(NC(=O)Nc3cccc(C(F)(F)F)c3)cc2C)ncn1 | 32 nM |  |  | 2000 nM | 5000 nM | > 2000 nM | 63 | 160 |  | 
CNc1cc(Oc2c(C)cc(NC(=O)Nc3cccc(C(F)(F)F)c3)cc2C)ncn1 |  | 1.5 kg·h/L | 7.9 nM | 1000 nM | 6300 nM | 2000 nM | 40 | 250 | 29.5 ×10⁻⁶ cm/s | 2.4 h
CNc1cc(Oc2ccc(NC(=O)Nc3cccc(C(F)(F)F)c3)cc2C)ncn1 | ≤ 10 nM |  |  | 63 nM | 630 nM | 160 nM | > 6.3 | > 63 |  | 

Further lines, results first:

IC50 [1] | AUC/dose [2] | IC50 [3] | IC50 [4] | IC50 [5] | IC50 [6] | Ratio IC50 (Homo sapiens [7]) | Ratio IC50 (Homo sapiens [8]) | Papp at 2 h [9] | half-life [10] | Structure (SMILES)
40 nM | 2 kg·h/L | 50 nM | 320 nM | 630 nM | 1600 nM | 8 | 16 | 21 ×10⁻⁶ cm/s | 3.7 h | CC(C)(O)CNc1cc(Oc2ccc(NC(=O)Nc3cccc(C(F)(F)F)c3)cc2)ncn1
32 nM | 0.3 kg·h/L | 40 nM | 79 nM | 1000 nM | 1000 nM | 2.5 | 31 | 8.2 ×10⁻⁶ cm/s | 4.5 h | O=C(Nc1ccc(Oc2cc(NCCO)ncn2)cc1)Nc1cccc(C(F)(F)F)c1
25 nM |  |  | 16 nM | 320 nM | 500 nM | 0.64 | 13 |  |  | CCNc1cc(Oc2ccc(NC(=O)Nc3cccc(C(F)(F)F)c3)cc2)ncn1
40 nM |  |  | 25 nM | 1000 nM | 400 nM | 0.63 | 25 |  |  | CNc1cc(Oc2ccc(NC(=O)Nc3cccc(C(C)(C)C)c3)cc2)ncn1
2500 nM |  |  | 2500 nM | 2000 nM | 1000 nM | 1 | 0.8 |  |  | CN(C)c1cc(Oc2ccc(NC(=O)Nc3cccc(C(F)(F)F)c3)cc2)ncn1
40 nM |  |  | 50 nM | 400 nM | 800 nM | 1.3 | 10 |  |  | CC(C)Nc1cc(Oc2ccc(NC(=O)Nc3cccc(C(F)(F)F)c3)cc2)ncn1
50 nM |  |  | 32 nM | 50 nM | 63 nM | 0.64 | 1 |  |  | CNc1nccc(Oc2ccc(NC(=O)Nc3cccc(C(F)(F)F)c3)cc2)n1
63 nM |  |  | 6.3 nM | 400 nM | 63 nM | 0.1 | 6.3 |  |  | CNc1cc(Oc2ccc(NC(=O)Nc3cccc(C(F)(F)F)c3)c(F)c2)ncn1
20 nM |  |  | 1.3 nM | 79 nM | 32 nM | 0.07 | 4 |  |  | CC(=O)Nc1cc(Oc2ccc(NC(=O)Nc3cccc(C(F)(F)F)c3)cc2)ncn1
